#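 Protocol summary: plate cells (96-well), add compound at 5 concentrations, incubate 48 h, interpolate endpoints linearly. GI50: concentration for 50% inhibition of growth.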 Active and inactive are the calls of the source. No stated cut-off is given here; in the data, active = GI50 up to about 1.1 µM and inactive = higher.
# Key:
# Assay in all cases: NCI tumour cell line growth inhibition, 48 h
# MDA-MB-435 = system: MDA-MB-435
# RXF 393 = system: RXF 393
# SW-620 = system: SW-620
# NCI-H23 = system: NCI-H23
# LOX IMVI = system: LOX IMVI
# K562 = system: K562
# MCF7 = system: MCF7
# TK-10 = system: TK-10
# HOP-62 = system: HOP-62
# HCT-15 = system: HCT-15
# IGROV-1 = system: IGROV-1
# NCI-H460 = system: NCI-H460
# SR = system: SR
# 786-0 = system: 786-0
# MDA-MB-231 = system: MDA-MB-231
# A498 = system: A498
# SN12C = system: SN12C
# NCI/ADR-RES = system: NCI/ADR-RES
# DU-145 = system: DU-145
# HOP-92 = system: HOP-92
# OVCAR-5 = system: OVCAR-5
# OVCAR-3 = system: OVCAR-3
# SF-268 = system: SF-268
# NCI-H226 = system: NCI-H226
# Hs-578T = system: Hs-578T
# EKVX = system: EKVX
# HL-60 = system: HL-60
# OVCAR-8 = system: OVCAR-8
# PC-3 = system: PC-3
# BT-549 = system: BT-549
# UACC-62 = system: UACC-62
# ACHN = system: ACHN
# UACC-257 = system: UACC-257
# UO-31 = system: UO-31
# HCT-116 = system: HCT-116
# A549 = system: A549
# MDA-N = system: MDA-N
# OVCAR-4 = system: OVCAR-4
# SNB-75 = system: SNB-75
# COLO 205 = system: COLO 205
# HT-29 = system: HT-29
# NCI-H522 = system: NCI-H522
# CAKI-1 = system: CAKI-1
# HCC 2998 = system: HCC 2998
# SF-295 = system: SF-295
# M14 = system: M14
# SK-MEL-5 = system: SK-MEL-5
# T47D = system: T47D
# MOLT-4 = system: MOLT-4
# U-251 = system: U-251
# Malme-3M = system: Malme-3M
# CCRF-CEM = system: CCRF-CEM
# SF-539 = system: SF-539
# SNB-19 = system: SNB-19
# SK-MEL-28 = system: SK-MEL-28
# KM12 = system: KM12
# SK-OV-3 = system: SK-OV-3
# SK-MEL-2 = system: SK-MEL-2
# RPMI-8226 = system: RPMI-8226
smiles,measurement,setting,value
Brc1ccc2[nH]cc(-c3csc(-c4c[nH]c5ccccc45)n3)c2c1,GI50,MDA-MB-435,3.84 µM (inactive)
same,GI50,RXF 393,3.61 µM (inactive)
same,GI50,SW-620,2.75 µM (inactive)
same,GI50,NCI-H23,2.39 µM (inactive)
same,GI50,LOX IMVI,2.1 µM (inactive)
same,GI50,K562,3.03 µM (inactive)
same,GI50,MCF7,2.13 µM (inactive)
same,GI50,TK-10,3.61 µM (inactive)
same,GI50,HOP-62,4.34 µM (inactive)
same,GI50,HCT-15,2.33 µM
same,GI50,IGROV-1,2.2 µM (inactive)
same,GI50,NCI-H460,2.61 µM (inactive)
same,GI50,SR,3.39 µM (inactive)
same,GI50,786-0,2.37 µM (inactive)
same,GI50,MDA-MB-231,2.17 µM (inactive)
same,GI50,A498,5.19 µM (inactive)
same,GI50,SN12C,3.66 µM (inactive)
same,GI50,NCI/ADR-RES,2.75 µM (inactive)
same,GI50,DU-145,3.52 µM (inactive)
same,GI50,HOP-92,3 µM (inactive)
same,GI50,OVCAR-5,2.02 µM (inactive)
same,GI50,OVCAR-3,3.01 µM (inactive)
same,GI50,SF-268,2.66 µM (inactive)
same,GI50,NCI-H226,1.82 µM (inactive)
same,GI50,Hs-578T,4.81 µM (inactive)
same,GI50,EKVX,2.69 µM (inactive)
same,GI50,HL-60,5.64 µM (inactive)
same,GI50,OVCAR-8,4.9 µM (inactive)
same,GI50,PC-3,3.54 µM (inactive)
same,GI50,BT-549,5.7 µM (inactive)
same,GI50,UACC-62,5.5 µM (inactive)
same,GI50,ACHN,5.5 µM (inactive)
same,GI50,UACC-257,5.07 µM (inactive)
same,GI50,UO-31,2.93 µM (inactive)
same,GI50,HCT-116,2.47 µM (inactive)
same,GI50,A549,3.67 µM (inactive)
same,GI50,MDA-N,2.88 µM (inactive)
same,GI50,OVCAR-4,5.42 µM (inactive)
same,GI50,SNB-75,10.1 µM (inactive)
same,GI50,COLO 205,2.08 µM (inactive)
same,GI50,HT-29,1.8 µM (inactive)
same,GI50,NCI-H522,1.81 µM (inactive)
same,GI50,CAKI-1,2.9 µM (inactive)
same,GI50,HCC 2998,2.08 µM (inactive)
same,GI50,SF-295,2.42 µM (inactive)
same,GI50,M14,1.98 µM (inactive)
same,GI50,SK-MEL-5,2.24 µM (inactive)
same,GI50,T47D,4.24 µM (inactive)
same,GI50,MOLT-4,2.05 µM (inactive)
same,GI50,U-251,2.98 µM (inactive)
same,GI50,Malme-3M,3.03 µM (inactive)
same,GI50,CCRF-CEM,2.11 µM (inactive)
same,GI50,SF-539,4.72 µM (inactive)
same,GI50,SNB-19,3.32 µM (inactive)
same,GI50,SK-MEL-28,5.06 µM (inactive)
same,GI50,KM12,2.3 µM (inactive)
same,GI50,SK-OV-3,7.52 µM (inactive)
same,GI50,SK-MEL-2,3.17 µM (inactive)
same,GI50,RPMI-8226,3.08 µM (inactive)
Ic1ccc2c(c1)N(c1ccccc1)c1cc([N-]c3ccc4nc5ccc(I)cc5[n+](-c5ccccc5)c4c3)ccc1N2,GI50,MDA-MB-435,31.4 µM (inactive)
same,GI50,RXF 393,> 100 µM (inactive)
same,GI50,SW-620,51.9 µM (inactive)
same,GI50,NCI-H23,41.3 µM (inactive)
same,GI50,K562,35 µM (inactive)
same,GI50,MCF7,26.4 µM (inactive)
same,GI50,TK-10,> 100 µM (inactive)
same,GI50,HOP-62,41.3 µM (inactive)
same,GI50,HCT-15,> 100 µM
same,GI50,IGROV-1,43.8 µM (inactive)
same,GI50,NCI-H460,42 µM (inactive)
same,GI50,SR,32.6 µM (inactive)
same,GI50,786-0,> 100 µM (inactive)
same,GI50,MDA-MB-231,23.7 µM (inactive)
same,GI50,A498,> 100 µM (inactive)
same,GI50,SN12C,> 100 µM (inactive)
same,GI50,NCI/ADR-RES,> 100 µM (inactive)
same,GI50,DU-145,> 100 µM (inactive)
same,GI50,HOP-92,> 100 µM (inactive)
same,GI50,OVCAR-5,> 100 µM (inactive)
same,GI50,OVCAR-3,2.92 µM (inactive)
same,GI50,SF-268,> 100 µM (inactive)
same,GI50,NCI-H226,> 100 µM (inactive)
same,GI50,Hs-578T,> 100 µM (inactive)
same,GI50,EKVX,32.2 µM (inactive)
same,GI50,HL-60,17.9 µM (inactive)
same,GI50,OVCAR-8,> 100 µM (inactive)
same,GI50,PC-3,55.7 µM (inactive)
same,GI50,BT-549,> 100 µM (inactive)
same,GI50,UACC-62,69.3 µM (inactive)
same,GI50,ACHN,> 100 µM (inactive)
same,GI50,UACC-257,31.3 µM (inactive)
same,GI50,UO-31,> 100 µM (inactive)
same,GI50,HCT-116,35 µM (inactive)
same,GI50,A549,> 100 µM (inactive)
same,GI50,MDA-N,37.6 µM (inactive)
same,GI50,OVCAR-4,> 100 µM (inactive)
same,GI50,SNB-75,> 100 µM (inactive)
same,GI50,COLO 205,16.2 µM (inactive)
same,GI50,HT-29,14.8 µM (inactive)
same,GI50,NCI-H522,22.8 µM (inactive)
same,GI50,CAKI-1,> 100 µM (inactive)
same,GI50,HCC 2998,67.1 µM (inactive)
same,GI50,SF-295,> 100 µM (inactive)
same,GI50,M14,26.9 µM (inactive)
same,GI50,SK-MEL-5,33.4 µM (inactive)
same,GI50,T47D,61.7 µM (inactive)
same,GI50,MOLT-4,68.9 µM (inactive)
same,GI50,U-251,45.6 µM (inactive)
same,GI50,Malme-3M,38 µM (inactive)
same,GI50,CCRF-CEM,15 µM (inactive)
same,GI50,SF-539,> 100 µM (inactive)
same,GI50,SNB-19,> 100 µM (inactive)
same,GI50,SK-MEL-28,> 100 µM (inactive)
same,GI50,KM12,44.2 µM (inactive)
same,GI50,SK-OV-3,> 100 µM (inactive)
same,GI50,SK-MEL-2,> 100 µM (inactive)
same,GI50,RPMI-8226,32.1 µM (inactive)
